Common to all, as to assay type: in vivo, Balb/c mice
Assay [1] deals with CS-induced ALI mice. Nature of the assay: CS-induced lung injury model: inflammatory cells counting in BALF. The conditions noted are these: intragastric before CS exposure, 7 days; CT-NA 10 and 30 mg/kg, Dex 1 mg/kg; BALF 24 hrs after last CS; p<0.01. The method, then: Specific pathogen-free (SPF) female Balb/c mice (22-28 g; aged 8 weeks) were purchased from Shanghai SIPPR-BK Experimental Animal Co., Ltd. […] Model preparation: The mice were randomly divided into 5 groups (12 mice in each group), which were the control group (the mice were exposed to fresh air), the saline group (the mice were exposed to cigarette smoke), dexamethasone (Dex) group (1 mg/kg) (the mice were exposed to cigarette smoke), CT-NA 10 mg/kg group and CT-NA 30 mg/kg group (the mice were exposed to cigarette smoke). According to the grouping, the mice were intragastrically administered saline, Dex and CT-NA, respectively. Thereafter, the mice were exposed to fresh air or cigarette smoke generated from 3R4F research-grade cigarettes (containing about 600 mg TPM/m^3 and 29.9 mg nicotine/m^3) in a cuboid plastic box (65×50x×45 cm). Ten cigarettes were burned every day for seven days. […] 24 hrs after the last exposure to the cigarette smoke, the partial pressure of oxygen (PO2) of all mice was measured by the Moor VMS-OXY™ measuring instrument, which was used to measure the oxygenated/deoxygenated hemoglobin concentration and oxygen saturation (percentage) in the microcirculation at the wavelength range of 500 to 650 nm. […] The supernatant was aliquoted and stored at −80° C. until the cytokine or albumin concentration was measured. […]

Assay [2] deals with CS-induced ALI mice. Nature of the assay: CS-induced lung injury model: albumin assay in BALF. The conditions noted are these: CT-NA 10 and 30 mg/kg intragastric; CS exposure; p<0.01. The method, then:
Model preparation: The mice were randomly divided into 5 groups (12 mice in each group), which were the control group (the mice were exposed to fresh air), the saline group (the mice were exposed to cigarette smoke), dexamethasone (Dex) group (1 mg/kg) (the mice were exposed to cigarette smoke), CT-NA 10 mg/kg group and CT-NA 30 mg/kg group (the mice were exposed to cigarette smoke). According to the grouping, the mice were intragastrically administered saline, Dex and CT-NA, respectively. Thereafter, the mice were exposed to fresh air or cigarette smoke generated from 3R4F research-grade cigarettes (containing about 600 mg TPM/m^3 and 29.9 mg nicotine/m^3) in a cuboid plastic box (65×50x×45 cm). Ten cigarettes were burned every day for seven days. After one cigarette was burned, the next cigarette was ignited. The daily body weight and general condition of the mice were checked. 24 hrs after the last exposure to the cigarette smoke, the partial pressure of oxygen (PO2) of all mice was measured by the Moor VMS-OXY™ measuring instrument, which was used to measure the oxygenated/deoxygenated hemoglobin concentration and oxygen saturation (percentage) in the microcirculation at the wavelength range of 500 to 650 nm. […] The albumin concentration ratio assessed from BALF represented not only the albumin level but also the permeability of the pulmonary microvascular.

For a further assay, the system named is LPS-induced ALI mice. Nature of the assay: LPS-induced ALI model: oxygen saturation (SO2). The conditions noted are these: CT-NA 10 or 30 mg/kg (P<0.01, dose-dependent), Dex 1 mg/kg; 24 hrs after LPS. The method, then: Specific pathogen-free (SPF) Balb/c mice (♂/♀; 20-26 g; 8 weeks old) were purchased from Shanghai SIPPR-BK Experimental Animal Co., Ltd. Mice were kept in an isolated ventilated cage in an environment of 40-60% humidity, 24±2° C., and 12 hrs/12 hrs dark-light cycle, and had free access to food and water. The method for preparing the LPS-induced ALI model was simply described as follows. The mice were randomly divided into a control group (12 mice) and an LPS group (48 mice). The LPS group (48 mice) was further divided into four subgroups (12 mice in each subgroup). The unanaesthetized mice in the four subgroups of LPS were intragastrically administered with normal saline (NS), CT-NA at 10 mg/kg or 30 mg/kg, and Dex at 1 mg/kg, respectively. One hour later, the mice were anesthetized with sodium pentobarbital (intraperitoneal injection at 40 mg/kg), and then subjected to intratracheal instillation of NS to control group and LPS (4 mg/kg) to all LPS subgroups. 12 hrs later, the unanaesthetized mice of the LPS group were intragastrically administered with NS, CT-NA at 10 mg/kg or 30 mg/kg, or Dex at 1 mg/kg, respectively (FIG. 16). […] 24 hrs after LPS challenge, the oxygen saturation (SO2) of all mice was measured by a Moor VMS-OXY™ instrument which measured SO2 (%) in the microcirculation at the wavelength range of 500 to 650 nm. […]

For the compound `CN([C@@H]1CCc2c(CC(=O)[O-])c3cccnc3n2C1)S(=O)(=O)c1ccc(F)cc1.[Na+]` [Sodium salt hydrate], in the assay on CS-induced ALI mice [1], the “number of total cells, macrophages and neutrophils in BALF” value is “significantly reduced”. For the same compound, in the assay on CS-induced ALI mice [2], the BALF albumin contents result was “remarkably reduced”. In the assay on LPS-induced ALI mice, the “oxygen saturation (SO2)” value is listed as “significantly increased”.

These data come from US20220098197A1, “SALTS OF HETEROCYCLIC COMPOUND AND USE THEREOF” (priority 2019, published 2022).
